Reference: ChEMBL document CHEMBL1159345, “Eudistomins W and X, two new beta-carbolines from the micronesian tunicate Eudistoma sp” (2003)

Assays:
Format in all cases: functional
Settings in all cases: read-out: IZ
Candida albicans [1] = assay: Antimicrobial activity against Candida albicans at 10 ug/disk by agar diffusion assay
Escherichia coli [2] = assay: Antimicrobial activity against Escherichia coli at 5 ug/disk by agar diffusion assay
Bacillus subtilis [3] = assay: Antimicrobial activity against Bacillus subtilis at 10 ug/disk by agar diffusion assay
Staphylococcus aureus [4] = assay: Antimicrobial activity against Staphylococcus aureus at 10 ug/disk by agar diffusion assay
Bacillus subtilis [5] = assay: Antimicrobial activity against Bacillus subtilis at 5 ug/disk by agar diffusion assay
Candida albicans [6] = assay: Antimicrobial activity against Candida albicans at 5 ug/disk by agar diffusion assay
Escherichia coli [7] = assay: Antimicrobial activity against Escherichia coli at 10 ug/disk by agar diffusion assay
Staphylococcus aureus [8] = assay: Antimicrobial activity against Staphylococcus aureus at 5 ug/disk by agar diffusion assay

Row | SMILES | zone of inhibition at 10 µg/disc (Candida albicans [1]) | zone of inhibition at 5 µg/disc (Escherichia coli [2]) | zone of inhibition at 10 µg/disc (Bacillus subtilis [3]) | zone of inhibition at 10 µg/disc (Staphylococcus aureus [4]) | zone of inhibition at 5 µg/disc (Bacillus subtilis [5]) | zone of inhibition at 5 µg/disc (Candida albicans [6]) | zone of inhibition at 10 µg/disc (Escherichia coli [7]) | zone of inhibition at 5 µg/disc (Staphylococcus aureus [8])
1 | Oc1ccc2[nH]c3c([C@@H](O)Cc4ccccc4)nccc3c2c1 [EUDISTOMIN W] | 13 mm | – | – | – | – | – | – | –
2 | CN(C)C(Cc1ccccc1)c1nccc2c1[nH]c1ccc(O)cc12 (centres undefined) [EUDISTOMIN X] | 18 mm | 15 mm | 18 mm | 12 mm | 17 mm | 17 mm | 20 mm | 11 mm
